Measured values reported in patent US8877351B2, “Organometallic complex, and lighting apparatus, and electronic device using the organometallic complex” (Semiconductor Energy Laboratory Co., Ltd., priority 2008, dated 2014).

Assay: solubility determination in organic solvents
Assay type: physicochemical
Source text: It is confirmed that Ir(dbq-tBuP)2(acac) can be dissolved in each of 2-ethoxyethanol, 1,4-dioxane, chloroform, and toluene.

## CC(=O)C=C(C)[O][Ir]([c]1cc(C(C)(C)C)ccc1-c1cnc2c3ccccc3c3ccccc3c2n1)[c]1cc(C(C)(C)C)ccc1-c1cnc2c3ccccc3c3ccccc3c2n1 [Ir(dbq-tBuP)2(acac), (acetylacetonato)bis{2-(4-tert-butylphenyl)-dibenzo[f,h]quinoxalinato}iridium(III)]
In chloroform
  solubility: ≥ 1200 µg/mL
In toluene
  solubility: ≥ 1200 µg/mL
solvent: Chloroform
  Solubility x: 1.2 ≦ x g/L
solvent: Ethanol
  Solubility x: x < 0.6 g/L
solvent: Isopropyl alcohol
  Solubility x: x < 0.6 g/L
solvent: Toluene
  Solubility x: 1.2 ≦ x g/L
